The text below walks through data of patent US11332443B2, “Derivatives of halo quinabactin” (THE REGENTS OF THE UNIVERSITY OF CALIFORNIA, priority 2015, dated 2022).

Assay type in all cases: biochemical
Test [1] deals with T1, PYL2-HAB1 (Arabidopsis thaliana, UniProt O80992).
T1 construct: 6xHis (N); made in house; host or cells: E. coli BL21[DE3]pLysS (stated for GST-HAB1)
T1 sequence (O80992 1-190): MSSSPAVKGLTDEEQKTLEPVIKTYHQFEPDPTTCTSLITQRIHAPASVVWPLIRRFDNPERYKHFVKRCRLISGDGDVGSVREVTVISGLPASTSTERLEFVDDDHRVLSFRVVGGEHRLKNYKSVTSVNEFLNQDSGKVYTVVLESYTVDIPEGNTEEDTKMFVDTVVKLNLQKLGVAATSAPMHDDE
T1 sequence (Q9CAJ0 23-511 partner): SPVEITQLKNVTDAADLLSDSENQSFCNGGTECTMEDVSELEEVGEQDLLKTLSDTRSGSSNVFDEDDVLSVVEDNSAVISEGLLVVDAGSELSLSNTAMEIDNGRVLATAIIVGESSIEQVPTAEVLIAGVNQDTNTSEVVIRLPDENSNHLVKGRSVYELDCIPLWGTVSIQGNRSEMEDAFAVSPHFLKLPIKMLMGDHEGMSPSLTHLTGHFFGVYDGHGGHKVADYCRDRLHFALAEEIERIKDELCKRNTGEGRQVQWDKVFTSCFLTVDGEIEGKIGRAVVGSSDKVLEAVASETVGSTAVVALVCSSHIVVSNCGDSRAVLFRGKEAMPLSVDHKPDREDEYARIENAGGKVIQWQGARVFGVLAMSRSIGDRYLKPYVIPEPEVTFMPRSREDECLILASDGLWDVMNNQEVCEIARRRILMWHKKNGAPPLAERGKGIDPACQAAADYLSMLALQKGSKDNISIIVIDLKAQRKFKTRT
Kind of test: PP2C activity assay, PYL2-HAB1 inhibition. Conditions: for percent inhibition at 0.2 µM: 200 nM test compound, 100 nM HAB1 PP2C, 200 nM receptor, read-out: % Inhibition of PYR/PYL-HAB1 at 200 nM: PYL2; for IC50: dose response in triplicate, non-linear regression. The source says:
(§1) The protein HAB1, a type 2 protein phosphatase (PP2C), is inhibited by PYR/PYL proteins in dependence of abscisic acid or other agonists. The potency of an agonist correlates with the level of inhibition of the PP2C, and therefore the IC50 (receptor-HAB1) can be used to compare the relative activity of different chemical analogues. Since inhibition of PP2C correlates to inhibition of seed-germination and increase in plant water-use efficiency, it serves as a powerful tool to quantify biological potential of a chemical acting as an analogue of abscisic acid.
(§2) HAB1 and PYL proteins were expressed and purified as described in Park et al. ((2009) Science 324(5930):1068-1071), with minor modifications. GST-HAB1 was produced by expression in BL21[DE3]pLysS host cells with an expression clone containing the HAB1 cDNA cloned into pGex-2T. Transformed E. coli cells were pre-cultured overnight, transferred to LB medium and cultured at 30° C. to culture A600 of ˜0.5 OD units. The culture was then cooled on ice and MnCl2 added to 4 mM and IPTG added to 0.3 mM. After 16 hours incubation at 15° C., cells were harvested and recombinant proteins were purified on glutathione agarose as described in Park et al. To obtain 6×His-PYL receptor fusion proteins, we used expression constructs previously described by Okamoto et al. 2013, (PNAS 110(29): 12132-12137).
(§3) PP2C activity assays using recombinant receptors and PP2Cs were carried out as follows: purified proteins were pre-incubated in 160 μl assay buffer containing (100 mM Tris-HCl-pH7.9, 100 mM NaCl, 3 μg bovine serum albumin and 0.1% 2-mercaptoethanol), 1 mM MnCl2 with carrier solvent (DMSO), quinabactin or quinabactin analogs (compounds of the present invention) for 30 minutes at room temperature. Reactions were started by adding 40 μL of a reaction solution containing 25 mM 4-nitrophenyl phosphate in assay buffer, after which absorbance measurements were immediately collected (405 nm) using a Wallac plate reader. […] Inhibition is indicated by reduced PP2C activity, which is expressed as a percentage of the control PP2C activity values that were obtained from assays containing carrier solvent instead but no test compound.

Test [2] has as its target T2, PYL1-HAB1 (Arabidopsis thaliana, UniProt Q8VZS8).
T2 construct: 6xHis (N); made in house; host or cells: E. coli BL21[DE3]pLysS (stated for GST-HAB1)
T2 sequence (Q8VZS8 1-221): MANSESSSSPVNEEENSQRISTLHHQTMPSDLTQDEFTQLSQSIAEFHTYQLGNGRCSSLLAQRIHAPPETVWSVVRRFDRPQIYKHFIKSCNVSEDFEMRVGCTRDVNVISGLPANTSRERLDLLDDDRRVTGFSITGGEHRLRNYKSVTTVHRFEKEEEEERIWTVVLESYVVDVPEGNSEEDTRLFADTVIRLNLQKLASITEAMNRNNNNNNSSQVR
T2 sequence (Q9CAJ0 23-511 partner): T1 sequence (Q9CAJ0 23-511 partner)
Kind of test: PP2C activity assay, PYL1-HAB1 inhibition. Conditions: 200 nM test compound, 100 nM HAB1 PP2C, 200 nM receptor; read-out: % Inhibition of PYR/PYL-HAB1 at 200 nM: PYL1.
From the text: as §1, §2
PP2C activity assays using recombinant receptors and PP2Cs were carried out as follows: purified proteins were pre-incubated in 160 μl assay buffer containing (100 mM Tris-HCl-pH7.9, 100 mM NaCl, 3 μg bovine serum albumin and 0.1% 2-mercaptoethanol), 1 mM MnCl2 with carrier solvent (DMSO), quinabactin or quinabactin analogs (compounds of the present invention) for 30 minutes at room temperature. Reactions were started by adding 40 μL of a reaction solution containing 25 mM 4-nitrophenyl phosphate in assay buffer, after which absorbance measurements were immediately collected (405 nm) using a Wallac plate reader. Reactions contained 100 nM HAB1 PP2C and 200 nM receptor and 200 nM test compound. Inhibition is indicated by reduced PP2C activity, which is expressed as a percentage of the control PP2C activity values that were obtained from assays containing carrier solvent instead but no test compound.

In test [3] the target is T3, PYR1-HAB1 (Arabidopsis thaliana, UniProt O49686).
T3 construct: 6xHis (N); made in house; host or cells: E. coli BL21[DE3]pLysS (stated for GST-HAB1)
T3 sequence (O49686 1-191): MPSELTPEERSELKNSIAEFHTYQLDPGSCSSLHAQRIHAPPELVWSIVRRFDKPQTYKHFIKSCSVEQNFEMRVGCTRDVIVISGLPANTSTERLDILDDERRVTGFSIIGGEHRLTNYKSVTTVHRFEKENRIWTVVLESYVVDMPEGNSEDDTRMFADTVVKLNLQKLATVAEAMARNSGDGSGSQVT
T3 sequence (Q9CAJ0 23-511 partner): T1 sequence (Q9CAJ0 23-511 partner)
Kind of test: PP2C activity assay, PYR1-HAB1 inhibition. Conditions: for activity at 0.2 µM: 200 nM test compound, 100 nM HAB1 PP2C, 200 nM receptor, read-out: % Inhibition of PYR/PYL-HAB1 at 200 nM: PYR1; for IC50: dose response in triplicate, non-linear regression.
From the text: as §1, §2, §3

For the compound `CCCN1C(=O)CCc2cc(NS(=O)(=O)Cc3ccccc3Br)cc(F)c21` [HQ20], the percent inhibition at 0.2 µM in test [1] came out at 94.1%. The activity at 0.2 µM in test [2] was determined as 84.7%; in test [3], 97.4%.

Take `CCCN1C(=O)CCc2cc(NS(=O)(=O)Cc3cccc(F)c3)cc(F)c21` [HQ21]: the percent inhibition at 0.2 µM in test [1] was determined as 63.7%. Further, the activity at 0.2 µM came to 48.2% in test [2] and 62.4% in test [3].

As for `CCCN1C(=O)CCc2cc(NS(=O)(=O)Cc3ccc(Cl)cc3Cl)cc(F)c21` [HQ22], in test [1], the percent inhibition at 0.2 µM worked out at 86.3%. The activity at 0.2 µM amounted to 70.6% in test [2] and 91.5% in test [3].

As to `CCCN1C(=O)CCc2cc(NS(=O)(=O)Cc3cccc(Br)c3)cc(F)c21` [HQ23], the percent inhibition at 0.2 µM in test [1] was determined as 87.8%. The activity at 0.2 µM is 85.7% in test [2] and 90.8% in test [3].

Consider `CCCN1C(=O)CCc2cc(NS(=O)(=O)Cc3ccc([N+](=O)[O-])cc3)cc(F)c21` [HQ24], for which the percent inhibition at 0.2 µM in test [1] turned out to be 76.5%. Besides, the figures for the activity at 0.2 µM in test [2] and in test [3] were 53.2% and 69%, respectively.

By IC50 is commonly meant the concentration that inhibits the measured activity by half. `CCCN1C(=O)CCc2cc(NS(=O)(=O)Cc3ccc(Br)cc3)cc(F)c21` [HQ25]: in test [1], the percent inhibition at 0.2 µM is 42.8% and half-maximal inhibition (IC50) was put at 77 nM. In test [2], the activity at 0.2 µM was determined as 20.8%. Besides, in test [3], the activity at 0.2 µM was found to be 33.8% and the IC50 was 75 nM.

`CCCN1C(=O)CCc2cc(NS(=O)(=O)Cc3ccccc3)cc(F)c21` [HQ26]: in test [1], the percent inhibition at 0.2 µM was determined as 74.8%. The results for the activity at 0.2 µM in test [2] and in test [3] were 51.4% and 63.6%, respectively.

Take `CCCN1C(=O)CCc2cc(NS(=O)(=O)Cc3cccc(Cl)c3)cc(F)c21` [HQ27]: the percent inhibition at 0.2 µM in test [1] was 88%. Further, the figures for the activity at 0.2 µM in test [2] and in test [3] were 79.8% and 90%, respectively.

As for `CCCN1C(=O)CCc2cc(NS(=O)(=O)Cc3ccc(C)cc3)ccc21` [Quinabactin], in test [1], the percent inhibition at 0.2 µM came out at 44% and the IC50 was 262 nM. For the same compound, the activity at 0.2 µM in test [2] was determined as 23%. Further, in test [3], the activity at 0.2 µM was 22% and it took 104 nM to reach half-maximal inhibition (IC50).
